Assay [1] deals with NAMPT (human, recombinant, C-terminally His-tagged) (Homo sapiens, UniProt P43490). In words: Time-Resolved Fluorescence Resonance Energy Transfer (TR-FRET) Binding Assay of NAMPT. The note with it: 6.8 nM NAMPT, 200 nM probe, equilibrated 3 hours, absence of substrates. The method in brief:
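Recombinant C-terminally His-tagged human NAMPT (6.8 nM) incubated 3 h at room temperature with 200 nM Oregon Green 488–labelled nicotinamide-competitive probe and 1 nM Tb-anti-His antibody in HEPES pH 7.5, 2% DMSO. TR-FRET ratio Em520/Em495 normalized to controls; IC50 from four-parameter logistic fit.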

In a further assay the target is NAMPT (Homo sapiens, UniProt P43490). Nature of the assay: Time-Resolved Fluorescence Resonance Energy Transfer (TR-FRET) Binding Assay of NAMPT with PRPP. Particulars: 2 nM NAMPT, 2 nM probe, 200 uM PRPP and 2.5 mM ATP, equilibrated 16 hours. The method in brief: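 Final mix: 2 nM NAMPT, 2 nM probe, 1 nM Tb-anti-His antibody, 200 uM PRPP, 2.5 mM ATP, 2% DMSO in 1× assay buffer. Equilibrated 16 hours before TR-FRET read, allowing possible enzymatic modification of compounds.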

Another assay has as its system PC3 cells. In words: NAMPT Cell Proliferation Assay (Cell Titer Glo; also performed in the presence of 0.3 mM nicotinamide mononucleotide). It counts as cell-based. The note with it: 5 days incubation, cell viability by Cell Titer Glo. The procedure: NAMPT Cell Proliferation Assay
PC3 cells were seeded in 96-well black plates (Corning #3904) at 500 cells/well in 90 μl of RPMI media containing 10% heat-inactivated FBS and incubated overnight at 37° C. and 5% CO2 to allow cells to attach to wells. The following day, test compounds were serially diluted in neat DMSO to 1000× final concentrations prior to dilution with RPMI media to 10× and 1% DMSO. Ten μL of the 10× compounds were then transferred to wells containing cells to produce a dose response of 10-fold dilutions from 10 μM to 1×10^−5 μM. Cells were incubated for 5 days at 37° C. and 5% CO2, then cell viability was measured using Cell Titer Glo reagent (Promega #G7571). Percent inhibition values were calculated and fitted to a sigmoidal dose response curves using Assay Explorer software to determine IC50s.

A value given as a limit tells only on which side of the number the result lay.

NAMPT (human, recombinant, C-terminally His-tagged), sequence (P43490 whole entry): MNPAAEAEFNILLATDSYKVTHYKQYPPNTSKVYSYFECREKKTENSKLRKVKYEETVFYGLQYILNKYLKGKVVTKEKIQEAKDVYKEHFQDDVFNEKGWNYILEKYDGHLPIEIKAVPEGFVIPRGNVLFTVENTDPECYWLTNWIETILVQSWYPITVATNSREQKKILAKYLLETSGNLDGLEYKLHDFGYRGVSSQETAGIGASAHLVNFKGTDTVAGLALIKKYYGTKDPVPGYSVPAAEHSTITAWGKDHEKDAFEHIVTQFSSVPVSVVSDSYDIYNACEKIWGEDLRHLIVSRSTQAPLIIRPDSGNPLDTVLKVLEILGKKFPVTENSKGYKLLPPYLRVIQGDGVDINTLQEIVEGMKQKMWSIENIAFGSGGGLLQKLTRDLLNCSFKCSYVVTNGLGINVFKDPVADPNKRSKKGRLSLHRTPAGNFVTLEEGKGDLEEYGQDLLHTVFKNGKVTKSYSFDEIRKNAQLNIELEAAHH
NAMPT, sequence (P43490 whole entry): as above

With `Cc1ccc(C(=O)N2CCC(c3ccc(NC(=O)C4CN(c5cccnn5)C4)cc3)CC2)s1` [Example 377, N-(4-{1-[(5-methylthiophen-2-yl)carbonyl]piperidin-4-yl}phenyl)-1-(pyridazin-3-yl)azetidine-3-carboxamide], the IC50 stood at 16.2 nM in assay [1] and 0.632 nM on NAMPT. Turning to `Cc1cnc(C(=O)N2CCC(c3ccc(NC(=O)C4CN(c5cccnn5)C4)cc3)CC2)cn1` [Example 378, N-(4-{1-[(5-methylpyrazin-2-yl)carbonyl]piperidin-4-yl}phenyl)-1-(pyridazin-3-yl)azetidine-3-carboxamide], the figures for the half-maximal inhibitory concentration (IC50) (in assay [1]; on NAMPT) were 77.1 nM and 0.632 nM, respectively.

In the case of `CC1(C(=O)N2CCC(c3ccc(NC(=O)C4CN(c5cccnn5)C4)cc3)CC2)CC1` [Example 379, N-(4-{1-[(1-methylcyclopropyl)carbonyl]piperidin-4-yl}phenyl)-1-(pyridazin-3-yl)azetidine-3-carboxamide], the values for the concentration for half-maximal inhibition (IC50) (in assay [1]; on NAMPT) were 15.9 nM and 0.432 nM, respectively. On the same counts, the results for `CCOCCC(=O)N1CCC(c2ccc(NC(=O)C3CN(c4cccnn4)C3)cc2)CC1` [Example 380, N-{4-[1-(3-ethoxypropanoyl)piperidin-4-yl]phenyl}-1-(pyridazin-3-yl)azetidine-3-carboxamide] are 109 nM and 0.883 nM. As for `O=C(Nc1ccc(C2CCN(C(=O)C3(c4ccccc4)CC3)CC2)cc1)C1CN(c2cccnn2)C1` [Example 381, N-(4-{1-[(1-phenylcyclopropyl)carbonyl]piperidin-4-yl}phenyl)-1-(pyridazin-3-yl)azetidine-3-carboxamide], the values for the concentration for half-maximal inhibition (IC50) (in assay [1]; on NAMPT) were 15.1 nM and 1.13 nM, respectively. On the same counts, the results for `O=C(Nc1ccc(C2CCN(C(=O)CSc3ncccn3)CC2)cc1)C1CN(c2cccnn2)C1` [Example 382, 1-(pyridazin-3-yl)-N-(4-{1-[(pyrimidin-2-ylsulfanyl)acetyl]piperidin-4-yl}phenyl)azetidine-3-carboxamide] are 65.8 nM and 0.657 nM. For `CC(=O)N1CCC(C(=O)N2CCC(c3ccc(NC(=O)C4CN(c5cccnn5)C4)cc3)CC2)CC1` [Example 383, N-(4-{1-[(1-acetylpiperidin-4-yl)carbonyl]piperidin-4-yl}phenyl)-1-(pyridazin-3-yl)azetidine-3-carboxamide] the same measures were 103 nM and 0.859 nM.

On to `O=C(Nc1ccc(C2CCN(C(=O)Cc3cc(F)cc(F)c3)CC2)cc1)C1CN(c2cccnn2)C1` [Example 384, N-(4-{1-[(3,5-difluorophenyl)acetyl]piperidin-4-yl}phenyl)-1-(pyridazin-3-yl)azetidine-3-carboxamide], for which the half-maximal inhibitory concentration (IC50) in assay [1] came to 28.8 nM; at NAMPT, 0.497 nM. For `CC(=O)N[C@@H](CC(C)C)C(=O)N1CCC(c2ccc(NC(=O)C3CN(c4cccnn4)C3)cc2)CC1` [Example 385, N-{4-[1-(N-acetyl-L-leucyl)piperidin-4-yl]phenyl}-1-(pyridazin-3-yl)azetidine-3-carboxamide], the IC50 in assay [1] was 55.1 nM; at NAMPT, 1.24 nM. As for `CC(C)C(=O)N1CCC(c2ccc(NC(=O)C3CN(c4ccnnc4)C3)cc2)CC1` [Example 528, N-{4-[1-(2-methylpropanoyl)piperidin-4-yl]phenyl}-1-(pyridazin-4-yl)azetidine-3-carboxamide], the half-inhibitory concentration (IC50) in assay [1] turned out to be 26.2 nM; on NAMPT it was 17.3 nM. For the compound `Cc1ccccc1C(=O)N1CC(c2ccc(NC(=O)[C@H]3CCN(c4cccnn4)C3)cc2)C1` [Example 791], in the assay with PC3 cells, the IC50 came out at 7.48 nM.

Regarding `CC1(Cn2cc(-c3ccc(NC(=O)C4CN(c5cccnn5)C4)cc3)cn2)CCNCC1` [Example 873, N-(4-{1-[(4-methylpiperidin-4-yl)methyl]-1H-pyrazol-4-yl}phenyl)-1-(pyridazin-3-yl)azetidine-3-carboxamide], the IC50 in the assay with PC3 cells (Homo sapiens, PC-3, 120 h) was found to be 675 nM. The same measure, in the same setting: in the case of `Cn1nc(C(F)(F)F)cc1-c1ccc(NC(=O)C2CN(c3cccnn3)C2)cc1` [Example 874, N-{4-[1-methyl-3-(trifluoromethyl)-1H-pyrazol-5-yl]phenyl}-1-(pyridazin-3-yl)azetidine-3-carboxamide] it was 71.1 nM; in that of `CC(C)(C)Cn1cc(-c2ccc(NC(=O)C3CN(c4ccc(Cl)nn4)C3)cc2)cn1` [Example 875, 1-(6-chloropyridazin-3-yl)-N-{4-[1-(2,2-dimethylpropyl)-1H-pyrazol-4-yl]phenyl}azetidine-3-carboxamide], above 10000 nM; in that of `Cc1ccc(N2CC(C(=O)Nc3ccc(C4CCN(C(=O)c5ccccc5)CC4)cc3)C2)cn1` [Example 876, N-[4-(1-benzoylpiperidin-4-yl)phenyl]-1-(6-methylpyridin-3-yl)azetidine-3-carboxamide], 29.2 nM. The same measure, in the same setting: for `CC1(Cn2cc(-c3ccc(NC(=O)C4CN(c5cccnc5)C4)cc3)cn2)CCNCC1` [Example 877, N-(4-{1-[(4-methylpiperidin-4-yl)methyl]-1H-pyrazol-4-yl}phenyl)-1-(pyridin-3-yl)azetidine-3-carboxamide] the value was 29.6 nM; for `Cc1ccc(N2CC(C(=O)Nc3ccc(-c4cnn(CC(C)(C)C)c4)cc3)C2)nn1` [Example 878, N-{4-[1-(2,2-dimethylpropyl)-1H-pyrazol-4-yl]phenyl}-1-(6-methylpyridazin-3-yl)azetidine-3-carboxamide], 70.6 nM.

Consider `O=C(Nc1ccc(C2CCN(C(=O)c3cccc(F)c3)CC2)c(F)c1)C1CN(c2cccnn2)C1` [Example 879, N-{3-fluoro-4-[1-(3-fluorobenzoyl)piperidin-4-yl]phenyl}-1-(pyridazin-3-yl)azetidine-3-carboxamide], for which the IC50 in the assay on PC3 cells (Homo sapiens, PC-3, 120 h) turned out to be 5.83 nM. The same measure, in the same setting: in the case of `CC(C)C(=O)N1CCC(c2ccc(NC(=O)C3CN(c4cccnn4)C3)cc2F)CC1` [Example 880, N-{3-fluoro-4-[1-(2-methylpropanoyl)piperidin-4-yl]phenyl}-1-(pyridazin-3-yl)azetidine-3-carboxamide] it was 15.4 nM. For `O=C(Nc1ccc(C2CCN(C(=O)CC(F)(F)F)CC2)c(F)c1)C1CN(c2cccnn2)C1` [Example 881, N-{3-fluoro-4-[1-(3,3,3-trifluoropropanoyl)piperidin-4-yl]phenyl}-1-(pyridazin-3-yl)azetidine-3-carboxamide], in the assay with PC3 cells (Homo sapiens, PC-3, 120 h), the half-inhibitory concentration (IC50) was 8.18 nM. On to `CC(C)(C)CC(=O)N1CCC(c2ccc(NC(=O)C3CN(c4cccnn4)C3)cc2F)CC1` [Example 882, N-{4-[1-(3,3-dimethylbutanoyl)piperidin-4-yl]-3-fluorophenyl}-1-(pyridazin-3-yl)azetidine-3-carboxamide], for which the IC50 in the assay with PC3 cells (Homo sapiens, PC-3, 120 h) came out at 6.43 nM. On the same count and under the same terms, in the case of `O=C(Nc1ccc(C2CCN(C(=O)CCC(F)(F)F)CC2)c(F)c1)C1CN(c2cccnn2)C1` [Example 883, N-{3-fluoro-4-[1-(4,4,4-trifluorobutanoyl)piperidin-4-yl]phenyl}-1-(pyridazin-3-yl)azetidine-3-carboxamide] it was 30.9 nM; in that of `O=C(Nc1ccc(C2CCN(C(=O)c3ccccc3)CC2)c(F)c1)C1CN(c2cccnn2)C1` [Example 884, N-[4-(1-benzoylpiperidin-4-yl)-3-fluorophenyl]-1-(pyridazin-3-yl)azetidine-3-carboxamide], 2.75 nM. Same read-out and setting: for `O=C(Nc1ccc(C2CCN(C(=O)c3ccccc3F)CC2)c(F)c1)C1CN(c2cccnn2)C1` [Example 885, N-{3-fluoro-4-[1-(2-fluorobenzoyl)piperidin-4-yl]phenyl}-1-(pyridazin-3-yl)azetidine-3-carboxamide] the value was 1.63 nM. The same measure, in the same setting: for `CC(C)(C)C(=O)N1CCC(c2ccc(NC(=O)C3CN(c4cccnn4)C3)cc2F)CC1` [Example 886, N-{4-[1-(2,2-dimethylpropanoyl)piperidin-4-yl]-3-fluorophenyl}-1-(pyridazin-3-yl)azetidine-3-carboxamide] the value was 7.66 nM. On to `CC(C)CC(=O)N1CCC(c2ccc(NC(=O)C3CN(c4cccnn4)C3)cc2F)CC1` [Example 887, N-{3-fluoro-4-[1-(3-methylbutanoyl)piperidin-4-yl]phenyl}-1-(pyridazin-3-yl)azetidine-3-carboxamide], for which the IC50 with PC3 cells (Homo sapiens, PC-3, 120 h) was found to be 8.47 nM.

As to `O=C(Nc1ccc(C2CCN(C(=O)CC3CC3)CC2)c(F)c1)C1CN(c2cccnn2)C1` [Example 888, N-{4-[1-(cyclopropylacetyl)piperidin-4-yl]-3-fluorophenyl}-1-(pyridazin-3-yl)azetidine-3-carboxamide], the IC50 in the assay with PC3 cells (Homo sapiens, PC-3, 120 h) was 9.76 nM.

On to `O=C(Nc1ccc(C2(O)CCN(C(=O)c3ccccc3F)CC2)cc1)C1CN(c2cccnn2)C1` [Example 889, N-{4-[1-(2-fluorobenzoyl)-4-hydroxypiperidin-4-yl]phenyl}-1-(pyridazin-3-yl)azetidine-3-carboxamide], for which the IC50 in the assay with PC3 cells (Homo sapiens, PC-3, 120 h) stood at 2.85 nM.

With `CC(C)(C)C(=O)N1CCC(O)(c2ccc(NC(=O)C3CN(c4cccnn4)C3)cc2)CC1` [Example 890, N-{4-[1-(2,2-dimethylpropanoyl)-4-hydroxypiperidin-4-yl]phenyl}-1-(pyridazin-3-yl)azetidine-3-carboxamide], the IC50 in the assay on PC3 cells (Homo sapiens, PC-3, 120 h) was 4.09 nM.

Source of the values: patent US8975398B2, “NAMPT inhibitors” (AbbVie Inc., priority 2012, dated 2015).
